Test results taken from US11110195B2, “Esculentin 1a derivatives and uses thereof” (University of Houston System, priority 2013, dated 2021).
Where two headings read alike, the source gives them in different places. Non-standard residues stand in square brackets, D forms with d. Residues, ends and D or L forms follow the SMILES beside them.

Experiments:
[1] = test system: human telomerase immortalized corneal epithelial cells; assay: in vitro
Method: Human corneal epithelial cells were incubated with varying concentrations of Esc-1a(1-21)NH2 for 24 hrs then cytotoxicity determined by MTT assay. Data are the mean of 3 independent experiments.
To determine the toxicity of Esc-1a(1-21)NH2 to human telomerase immortalized corneal epithelial cells, the following experiment was performed. The MTT (3-(4,5-Dimethylthiazole-2-yl)-2,5-diphenyltetrazolium bromide) assay measures the activity of enzymes that reduce the tetrazolium blue dye to a formazan salt. Mitochondrial reductase enzymes will reduce MTT to formazan, which can be visualized by colorimetric reaction the absorbance of which can be quantified.
MTT assay was performed on human telomerase immortalized corneal epithelial cells treated with different concentrations of the peptide for 24 hrs. The test was performed in triplicate or quadruplicate wells with concentrations of the peptide of up to 100 μM using the following protocol. On day 1, plated the telomerase immortalized epithelial cells at 10,000 cells/well in a 96 well plate. Incubated the plate at 37° C. for […] to allow the cells to attach to the plate and spread. On day 2, incubated the cells in serum free media for at least 6 hrs prior to peptide treatment. On day 3, stimulated the cells with 100, 50, 25, 10, 5, 1, 0.5 and 0.1 μM Esc-1a(1-21)NH2 in quadruplicate for 24 hrs. On day 4, added 50 μl of 0.02% Benzalkonium chloride into 4 wells as a positive control for 15 minutes. Added 50 μl of serum free media into all the other wells (total volume 100 μl). Added 10 μl of MTT stock solution into each of the well. Incubated at 37° C. for 3 hours. At the end of 3 hours purple crystals were visible under the microscope. Added 100 μl of stop solution into each well using a multichannel pipette. Pipetted up and down to dissolve all the crystals. Gently popped the bubbles using a 10 μl tip. Read plate using plate reader at 590 nm abs and 635 nm reference. Subtracted reference OD value (635) from 590 OD value and plotted graph.

P. aeruginosa ATCC 27853 = conditions: soluble free form, 1 μM, within 20 minutes in PBS
in vitro = conditions: for Peptide Amount (%): 24 h, 37° C.; for remaining at 5 h, 0.575 mM / remaining at 24 h, 0.575 mM: human
Method: A total of 125 μl of a 0.92 mM solution of each peptide was incubated at 37° C. with 20 μl and 60 μl human serum. Samples were collected after 5 h and 24 h of incubation, precipitated with 200 μl methanol, and centrifuged for 2 min at 10,000 g.
The crude solution was then analyzed by high-performance liquid chromatography (HPLC) and mass spectrometry. HPLC was performed with a Vydac C18 column, and the crude solution was diluted 5 times with 0.1% trifluoroacetic acid before injection and monitored at 280 nm.

[2] = test system: P. aeruginosa ATCC 27853 biofilm; conditions: 2 hours treatment
Method: Data points are the mean±SEM of three independent experiments. The levels of statistically significant differences between the two peptides are indicated as follows *P<0.05, **P<0.01, ***P<0.001
The reference strain and the clinical isolates were grown at 37° C. in Luria-Bertani broth (LB) to mid-log phase (optical density of 0.8 at 590 nm). With the help of tweezers, silicone hydrogel narafilcon A soft CL (1-Day ACUVUE TruEye) were removed from the manufacturer's containers, and washed thrice in phosphate buffered saline (PBS). The lenses were then immersed into wells of a 24-multiwell plate, each well containing 1 mL of bacterial inoculum in 1/10 LB at a concentration of 5×10^4 colony-forming units (CFU)/mL. Noteworthy, the number of bacteria isolated from CL storage cases has been reported to range from 1 to 6×10^4 CFU/case (2, 10). Therefore, in order to reproduce a more realistic level of bacteria to which CLs can be exposed, an inoculum size of 5×10^4 CFU/mL was used for biofilm formation.
The plate was then incubated in a humidified incubator at 37° C. at 125 rpm to allow biofilm formation on the surface of both lens sides. After 20 hours of incubation, each lens was washed thrice with PBS to remove any non-adherent planktonic cells.
The lenses were then transferred into wells of a new 24-multiwell plate, each well containing serial dilutions of Esc-1a(1-21)NH2 and Esc-1a(1-21)-1cNH2 in PBS. For […] controls, the lenses were immersed in sterile PBS. The new plate was then incubated at 37° C. for 2 hours with gentle shaking (125 rpm). After peptide treatment, each lens was washed thrice in PBS and transferred into wells of another 24-multiwell plate, each well containing 350 μL of 0.5 mg/mL of 3-(4,5-dimethylthiazol-2-yl)-2,5-diphenyltetrazolium bromide (MTT, from Sigma Aldrich, Milan, Italy) in Hank's solution (136 mM NaCl; 0.34 mM Na2HPO4; 0.44 mMKH2PO4; 5.4 mM KCl; 4.1 mM NaHCO3 pH 7.2, supplemented with 5.5 mM D-glucose) as previously reported (8). The killing of biofilms was determined as a function of the inhibition of MTT reduction to insoluble formazan crystals by bacterial reductases. The plate was incubated again for 2 hours (125 rpm) at 37° C. Formazan crystals were solubilized by the addition of acidified isopropanol. During overnight incubation at room temperature the resulting purple color was absorbed by the lens. Afterward, each lens was soaked in absolute ethanol (500 μL in each well) to decolor it. Aliquots of 100 μL were finally transferred to the wells of a 96-multiwell plate and absorbance was measured at 590 nm using a microplate reader (Infine M 200, Tecan). Untreated bacterial cells in PBS were the control. Percentage of killing was calculated according to the formula: [1−(Abs of treated samples−Abs of blank/Abs of control samples-Abs of blank)][…], where the blank was the solvent PBS.

[3] = MTT viability assay, A549 cells; conditions: human
Method: (§1) Cell viability is expressed as percentage with respect to the control (cells not treated with the peptides). Data points represent the mean of triplicate samples ±SEM. […] The levels of statistical significance between the two peptides are indicated as follows: **p<0.01, ***p<0.001.
(§2) Cells were plated in wells of a microtiter plate, at 4×10^4 cells/well in DMEM supplemented with 2 mM glutamine and 2% FBS (for A549 cells) or DMEM containing 2 mM glutamine, non-essential amino acids (NEAA), sodium pyruvate and 2% FBS (for Raw 264.7 macrophages). After overnight incubation at 37° C. in a 5% CO2 atmosphere, the medium was replaced with 100 μl fresh serum-free medium supplemented with the peptides at different concentrations. After 24 h of peptide treatment, cell viability was determined by a MTT assay.

[4] = test system: A549 lung epithelial cells; assay: Wound healing assay, A549 lung epithelial cells; type: cell-based, human; conditions: A549 monolayer
Method: The percentage of cell-covered area at each time point is reported on the y-axis. Control (Ctrl) represents cells not treated with the peptides. All data are the mean of at least three independent experiments ±SEM. […] Both peptides were able to stimulate the closure of the gap produced in the monolayer of A549 cells, with the optimal concentration allowing the almost complete coverage of the wound field equal to 10 μM (for the wild type peptide, FIG. 13A) or 4 μM (for the diastereomer, FIG. 13B) within approximately 24 hours or 20 hours, respectively.
As shown in FIGS. 13A-13B, Esc-1a(1-21)NH2 and its diastereomer both stimulated wound closure although at concentrations much higher than were required to induce a similar effect in human corneal epithelial cells. This may reflect cell specific differences.

Raw 264.7 macrophages = assay: MTT viability assay, Raw 264.7 macrophages; conditions: 256 μM (highest concentration), 24 h
Method: as §1, §2

HaCaT keratinocytes = test system: HaCaT keratinocytes
Description: Cell viability is expressed as percentage with respect to the control (cells not treated with the peptide). Data points represent the mean of triplicate samples ±SEM.

HaCaT cells = assay: Wound healing assay, HaCaT cells; type: cell-based, human; conditions: HaCaT monolayer
Method: The percentage of cell-covered area at each time point is reported on the y-axis. Control (Ctrl) represents cells not treated with the peptide. All data are the mean of at least three independent experiments ±SEM. […] The optimal concentration allowing gap closure was 0.25 μM.
The experimental procedure is similar to that described in Example 6 with the following two differences: (i) 40,000 cells suspended in DMEM supplemented with 4 mM glutamine and 10% FBS were seeded on each side of the ibidi culture inserts instead of 70,000 cells in KGM-2g as for corneal epithelial cells; (ii) serum-free medium was used in the wound healing assay instead of medium supplemented with 5% FBS as for corneal epithelial cells. […] Overall, the experiments indicate that Esc-1a(1-21)NH2 can stimulate wound closure in different types of mammalian cells but this is with a different kinetic or optimal concentration and thus a stereospecific mechanism involving a direct/indirect activation of different signalling transduction cascades (depending on the selected cell type) likely subtends such events.

In the case of “benzalkonium chloride [BAC, reference compound]”, the cytotoxicity ([1]; positive control (FIG. 4)) is reported as ~100% and the viability ([1]; positive control, 0.02% for 15 minutes) is reported as 6.2%.
For `CC[C@H](C)[C@H](NC(=O)CN)C(=O)N[C@@H](Cc1ccccc1)C(=O)N[C@@H](CO)C(=O)N[C@@H](CCCCN)C(=O)N[C@@H](CC(C)C)C(=O)N[C@@H](C)C(=O)NCC(=O)N[C@@H](CCCCN)C(=O)N[C@@H](CCCCN)C(=O)N[C@H](C(=O)N[C@@H](CCCCN)C(=O)N[C@@H](CC(N)=O)C(=O)N[C@H](CC(C)C)C(=O)N[C@@H](CC(C)C)C(=O)N[C@H](C(=O)N[C@H](CO)C(=O)NCC(=O)N[C@@H](CC(C)C)C(=O)N[C@@H](CCCCN)C(=O)NCC(N)=O)[C@@H](C)CC)[C@@H](C)CC` [Esc-1a(1-21)-1cNH2] (H-GIFSKLAGKKIKN[dL]LI[dS]GLKG-NH2; N-terminus assumed), the killing (P. aeruginosa ATCC 27853) was ~90%, the “Peptide Amount (%)” value (in vitro; 10% human fresh serum) was 45.61% and the “Peptide Amount (%)” value (in vitro; 30% human fresh serum) was 25.46%. The remaining at 5 h, 0.575 mM (in vitro; 10% human fresh serum) was 63.3%, the remaining at 24 h, 0.575 mM (in vitro; 10% human fresh serum) was 45.6% and the remaining at 5 h, 0.575 mM (in vitro; 30% human fresh serum) was 30.1%. It also gave a remaining at 24 h, 0.575 mM (in vitro; 30% human fresh serum) of 25.5%, a biofilm killing ([2]; 4 μM) of ~35% and a biofilm death ([2]; 16 μM) of ~80%. The biofilm killing ([2]; 32 μM) was ~90%, the CC50 at 24 h [3] was > 256 µM and the “optimal concentration allowing almost complete coverage of the wound field” value [4] was 4 µM. For the same molecule, the “time to almost complete coverage of the wound field” value ([4]; at optimal concentration) was ~20 h and the “decrease in the percentage of metabolically-active cells” value (Raw 264.7 macrophages) was ~20%.
With `CC[C@@H](C)[C@@H](NC(=O)CN)C(=O)N[C@H](Cc1ccccc1)C(=O)N[C@H](CO)C(=O)N[C@H](CCCCN)C(=O)N[C@H](CC(C)C)C(=O)N[C@H](C)C(=O)NCC(=O)N[C@H](CCCCN)C(=O)N[C@H](CCCCN)C(=O)N[C@@H](C(=O)N[C@H](CCCCN)C(=O)N[C@H](CC(N)=O)C(=O)N[C@H](CC(C)C)C(=O)N[C@H](CC(C)C)C(=O)N[C@@H](C(=O)N[C@H](CO)C(=O)NCC(=O)N[C@H](CC(C)C)C(=O)N[C@H](CCCCN)C(=O)NCC(N)=O)[C@H](C)CC)[C@H](C)CC` [all D Esc-1a(1-21)NH2] (H-G[dI][dF][dS][dK][dL][dA]G[dK][dK][dI][dK][dN][dL][dL][dI][dS]G[dL][dK]G-NH2; N-terminus assumed) the “reduction in the number of metabolically-active keratinocytes” value (HaCaT keratinocytes; 2 h treatment, 1-64 μM) was “did not show any remarkable reduction”, the “toxicity to HaCaT keratinocytes” value (HaCaT keratinocytes; higher concentration tested, 24 h) was “did not show toxicity” and the “cell-covered area vs untreated control cells” value (HaCaT cells) was “no statistically significant difference”.
